Assay [1] has as its system polyclonal antibody of the thiamethoxam immunoassay. As to the kind of experiment: Cross reactivity of the thiamethoxam immunoassay (competitive enzyme immunoassay in antibody-coated tubes). It counts as binding. On the set-up: key to Percent Reactivity Relative to Thiamethoxam: NR, non-reactive. The conditions noted are these: for Percent Reactivity Relative to Thiamethoxam: test substances in 1% methanol/water, 1000 to 0.01 ng/ml. As for the experimental part: The antibody-coated polystyrene culture tubes are labeled and placed in the tube rack such that the first and last tubes are standards and the remaining standards and samples are mixed. Sample and standard solutions (0.50-ml) are added to the corresponding tubes. A similar volume of enzyme conjugate solution is added. The rack is gently shaken to mix the solutions and set to incubate for 20 min at room temperature. The contents of all tubes are removed by inverting the rack over a stainless steel pan. Each tube is washed to overflowing with distilled water. The rack is inverted over the sink to dump the wash water. Washing is repeated four times. Then the rack is inverted and tapped gently on a paper towel to remove most of the remaining wash. […] The rack is gently shaken at 2.5 min intervals to ensure the enzyme maintains an ample supply of substrate. Generation of the blue colored signal is terminated by addition of acidic stop solution (0.50-ml). The absorbance of the solution in each tube is measured spectrophotometrically at 450 nm.
The concentration of analyte in the samples is determined from a regression function in the form of y=m ln(x)+b.
The cross reactivity, or specificity, of the immunoassay is evaluated to determine if other test substances found in seed coatings would interfere with measurement of thiamethoxam. Test substances are dissolved in 1% methanol/water to concentrations ranging from 1000 to 0.01 ng/ml. Aliquots of each concentration are analyzed as described above. The reactivity of each test substance over this range is determined as previously described in Brady, J. F; Turner, J.; Skinner, D. H. “Application of a triasulfuron enzyme immunoassay to the analysis of incurred residues in soil and water samples.” J. Agric. Food Chem. 1995, 43:2542–2547.

For assay [2] the test system is unchanged. As to the kind of experiment: Typical standard curve for the thiamethoxam immunoassay. The format is binding. As for the experimental part:
A portion of the seed extract is diluted into 1% MeOH/H2O until the expected concentration of thiamethoxam is brought within range of the calibration curve, 0.5 to 120 parts per billion. Antibody-coated tubes are labeled and placed in a tube rack such that the first and last tubes are standards and the remaining standards and samples are intermixed. The tube rack grips each tube such that the rack may be inverted without loss of the tubes. An aliquot of a standard or sample (0.5 mL) is added to all corresponding tubes. Enzyme conjugate solution (0.5 mL) is added to all tubes. The rack is shaken gently to mix the contents of all tubes. Tubes are incubated for 20 min at room temperature. The rack is inverted to decant the contents of all tubes. Distilled H2O is added to all tubes to overflowing using a flip-top wash bottle and the wash is decanted. Tubes are washed an additional three times. After the final wash, the rack is inverted and the tubes are gently tapped upon a clean paper towel to remove excess wash. Enzyme substrate (0.5 mL) is added to all tubes which are incubated for 10 min at room temperature. The rack is shaken gently every 2.5 min during this incubation. Acidic stop solution (1 M HCl, 0.5 mL) is added to all tubes to terminate signal generation. […] The absorbances of the standards are used to construct a calibration curve, a regression function in the form of […]. The absorbance of each sample is inserted into the function to determine the concentration of the neonicotinoid pesticide in the diluted sample. The resulting concentration is multiplied by the dilution factor to calculate the amount of neonicotinoid pesticide in the original sample. The function describing the response of the thiamethoxam standards is generated by regression analysis.

SMILES strings stand for the structures.

With `CCN(CC)c1nc(C)cc(OP(=S)(OC)OC)n1` [Primifos-methyl], in assay [1], the “Percent Reactivity Relative to Thiamethoxam” value is “NR”.
The same measure, in the same setting: to `COC(=O)NC(=S)Nc1ccccc1NC(=S)NC(=O)OC` [Thiophanate-methyl] belongs “NR”; to `COCC(=O)N(c1c(C)cccc1C)[C@H](C)C(=O)OC` [Mefenoxam (R-Metalaxyl), Mefenoxam], “NR”.
The same measure, in the same setting: to `O=C1C2CC=CCC2C(=O)N1SC(Cl)(Cl)Cl` (stereo not drawn) [Captan] belongs “NR”.
On the same count and under the same terms, the result for `CC1COC(Cn2cncn2)(c2ccc(Oc3ccc(Cl)cc3)cc2Cl)O1` (stereo not drawn) [Difenoconazole] reads “NR”; that for `O=[N+]([O-])c1c(Cl)c(Cl)c(Cl)c(Cl)c1Cl` [Pentachloronitrobenzene], “NR”.
Turning to `CC1=C(C(=O)Nc2ccccc2)SCCO1` [Carboxin], in assay [1], the “Percent Reactivity Relative to Thiamethoxam” value is “NR”.
In the case of `COCC(=O)N(c1c(C)cccc1C)C(C)C(=O)OC` (stereo not drawn) [Metalaxyl], the “Percent Reactivity Relative to Thiamethoxam” value in assay [1] is given as “NR”.
Consider `CN1COCN(Cc2cnc(Cl)s2)/C1=N\[N+](=O)[O-]` [Thiamethoxam], for which the “reactivity with the immunoassay (in words)” value in assay [1] (among the test substances analyzed) is reported as “significantly reactive”. In addition, the “Percent Reactivity Relative to Thiamethoxam” value in assay [1] is reported as 100%. Moreover, the “Absorbance at 450 nm (Analytical response)” value in assay [2] (Concentration of Thiamethoxam 0.5 Parts Per Billion) was determined as 1.3618; in assay [2] (Concentration of Thiamethoxam 3 Parts Per Billion) it was 1.0283; in assay [2] (Concentration of Thiamethoxam 20 Parts Per Billion), 0.6636; in assay [2] (Concentration of Thiamethoxam 120 Parts Per Billion) it was 0.3145.
Regarding `CCOP(=S)(OCC)Oc1nc(Cl)c(Cl)cc1Cl` [Chlorpyrifos], the “Percent Reactivity Relative to Thiamethoxam” value in assay [1] is listed as “NR”.
On the same count and under the same terms, the result for `N#Cc1c[nH]cc1-c1cccc2c1OC(F)(F)O2` [Fludioxonil] reads “NR”; that for `CCCCC(C#N)(Cn1cncn1)c1ccc(Cl)cc1` (stereo not drawn) [Systhane (Myclobutanil), Myclobutanil], “NR”.
The same measure, in the same setting: the result for `N#CSCSc1nc2ccccc2s1` [TCMTB] reads “NR”; that for `CN/C(=N\[N+](=O)[O-])NCc1cnc(Cl)s1` [Clothiadin], less than 1.0%.
Regarding `O=[N+]([O-])NC1=NCCN1Cc1ccc(Cl)nc1` [Imidacloprid], the “Percent Reactivity Relative to Thiamethoxam” value in assay [1] was “^2NR”.
The same measure, in the same setting: the result for `FC(F)(F)C(=NOCC1OCCO1)c1ccc(Cl)cc1` [Fluxofenim] reads “NR”.

For the origin of these results see patent US7148029B2, “Immunoassay for neonicotinyl insecticides” (Syngenta Crop Protection, Inc., priority 1999, dated 2006).
